# Assay results from PubChem BioAssay (NCI).
# Where “and” joins values, the source holds several entries; their conditions need not be identical. Equal entries are not always repeated.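 Compound exposure: 48 hours, 5 concentrations, 96-well plates. GI50 = concentration required for 50% inhibition of growth. TGI marks complete inhibition of growth.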
# Columns and labels:
# Experiment in all cases: inhibition of tumour cell growth, NCI panel, 48 h
# OVCAR-4 ovarian = test system: OVCAR-4 ovarian
# BT-549 breast = test system: BT-549 breast
# IGROV1 ovarian = test system: IGROV1 ovarian
# SK-OV-3 ovarian = test system: SK-OV-3 ovarian
# A549 NSCLC = test system: A549 NSCLC
# UACC-62 melanoma = test system: UACC-62 melanoma
# RXF 393 renal = test system: RXF 393 renal
# PC-3 prostate = test system: PC-3 prostate
# OVCAR-3 ovarian = test system: OVCAR-3 ovarian
# COLO 205 colon = test system: COLO 205 colon
Structure (SMILES),GI50 (OVCAR-4 ovarian) [µM],TGI (OVCAR-4 ovarian),GI50 (BT-549 breast) [µM],TGI (BT-549 breast) [µM],GI50 (IGROV1 ovarian) [µM],TGI (IGROV1 ovarian),GI50 (SK-OV-3 ovarian) [µM],TGI (SK-OV-3 ovarian),GI50 (A549 NSCLC) [µM],TGI (A549 NSCLC),GI50 (UACC-62 melanoma) [µM],TGI (UACC-62 melanoma),GI50 (RXF 393 renal) [µM],TGI (RXF 393 renal),GI50 (PC-3 prostate) [µM],TGI (PC-3 prostate),GI50 (OVCAR-3 ovarian) [µM],TGI (OVCAR-3 ovarian),GI50 (COLO 205 colon) [µM],TGI (COLO 205 colon)
C[n+]1c(/C=C\c2ccc(Cl)cc2)ccc2ccccc21,12,> 100 µM,4.78,76.4,27.2,> 100 µM,46.6,> 100 µM,1.04,> 100 µM,17.7,52 µM,31.8,98.3 µM,13.3,> 100 µM,7.34,31.4 µM,4.28,24.4 µM
Cc1cc(N2CCCCC2)nc(N(CCCNc2ccnc3cc(Cl)ccc23)Cc2ccco2)n1,2.69,14.3 µM,2.65,8.54,1.82,6.57 µM,3.35,13.2 µM,3.34,11.2 µM,1.89,3.73 µM,1.52,3.44 µM,1.98,5.61 µM,2.02,5.01 µM,1.67,3.53 µM
COC(=O)NC1C(C)OC(OC2C/C=C(/C)C3C=CC4C(OC5CC(OC6CC(O)C(OC7CC(O)C(OC)C(C)O7)C(C)O6)C(O)C(C)O5)C(C)CC(C)C4C3(C)/C(O)=C3\C(=O)OC4(CC(C)C(CO)=CC4/C=C\2C)C3=O)CC1(C)[N+](=O)[O-] (configuration not stated),–,11.8 µM,–,41.4,12.7,34 µM and 28.5 µM,10.3,50 µM and 20.9 µM,25.7,50 µM and 58.5 µM,9.44,16.7 µM and 18.4 µM,8.97,21.4 µM and 30.7 µM,–,50 µM,9.64,21 µM and 19.4 µM,9.29,16.3 µM and 13 µM
C=C1C(=O)O[C@@H]2C[C@@]3(C)CCC[C@H](C)C3=C[C@H]12,–,17.6 µM,–,15.7,–,29.6 µM,–,40.4 µM,–,31 µM,–,19.8 µM,–,18.8 µM,–,24.2 µM,–,19.5 µM,–,3.39 µM
C=C1C(=O)O[C@H]2[C@H]1CC/C(COC(=O)CCCCC(=O)OC/C1=C/CC[C@@]3(C)O[C@H]3[C@H]3OC(=O)C(=C)[C@@H]3CC1)=C\CC[C@@]1(C)O[C@@H]21,3.01,> 100 µM,1.37,3.36,–,–,33.4,> 100 µM,58.2,> 100 µM,1.7,4.04 µM,0.967,2.31 µM,2.43,7.46 µM,0.84,2.14 µM,1.29,3.31 µM
COc1ccc(-c2[nH]c3ccccc3c2C=C(C#N)C#N)cc1,0.797,> 100 µM,0.769,> 100,–,> 100 µM,0.434,5.89 µM,0.694,> 100 µM,0.347,–,0.511,> 100 µM,0.547,> 100 µM,0.263,0.713 µM,0.223,0.533 µM
CC[C@H](C)[C@H]1NC(=O)[C@@H](N[C@](C)(O)[C@@H](N)CC(C)C)[C@@H](C)OC(=O)[C@H](Cc2ccc(OC)cc2)N(C)C(=O)[C@@H]2CCCN2C(=O)[C@H](CC(C)C)NC(=O)[C@@H](C)C(=O)[C@H](C(C)C)OC(=O)C[C@@H]1O,0.0189,0.365 µM,0.0195,0.406,0.0133,0.413 µM,0.0191,1.19 µM,0.0115,0.47 µM,0.0109,0.16 µM,0.019,0.173 µM,0.0164,0.208 µM,0.0178,0.232 µM,0.0108,0.073 µM
CC1=NN(c2ccccc2)C(=O)C1N=Nc1ccc([As](=O)(O)O)c(O)c1 (configuration not stated),–,> 100 µM,–,> 100,–,> 100 µM,–,> 100 µM,–,> 100 µM,–,> 100 µM,–,> 100 µM,–,> 100 µM,–,> 100 µM,–,> 100 µM
CCCCCCCCCCCCCC(=O)O[C@H]1CC[C@H](NC(=O)[C@H](OC)[C@H](O)[C@@H](O)[C@H](O)/C=C/C(C)C)C(=O)NC1,0.00276,29 µM and 31.3 µM,12.8,51.2,–,8.51 µM and 2.71 µM,–,51.2 µM and > 100 µM,–,7.34 µM and 13.8 µM,–,0.0143 µM and 0.045 µM,–,0.283 µM,0.0152,51.2 µM and 12.7 µM,0.00435,10.5 µM and 17.9 µM,–,0.00374 µM and 0.0154 µM
Oc1ccc2cc(Br)ccc2c1-c1c(O)ccc2cc(Br)ccc12,4.89,14.6 µM,3.86,12.4,2.06,11.8 µM,4.72,17.3 µM,3.78,13.1 µM,2.2,8.5 µM,2.79,5.93 µM,3.24,13 µM,3.21,9.77 µM,1.77,3.38 µM
CCOc1cccc(/C=N/NC(=O)c2ccc(Nc3ccnc(C(F)(F)F)c3)cc2)c1O,0.755,> 100 µM,1.88,> 85,2.32,> 23.9 µM,2.01,> 57.8 µM,2.13,> 69.1 µM,0.774,> 61 µM,2.97,> 49.2 µM,0.607,> 33.8 µM,0.298,28 µM,1.14,> 38.3 µM
C1=Cc2ccccc2Nc2ccccc21,> 100,> 100 µM,> 100,> 100,> 100,> 100 µM,> 100,> 100 µM,> 100,> 100 µM,> 100,> 100 µM,> 100,> 100 µM,> 100,> 100 µM,> 100,> 100 µM,> 100,> 100 µM
Cn1ccnc1C(=O)/C=C/c1ccc(C(=O)Nc2ccc(Cl)cc2)cc1,0.981,> 33.3 µM,0.958,7.72,0.855,2.62 µM,1.87,> 33.3 µM,0.951,> 33.3 µM,1.55,7.59 µM,0.836,2.66 µM,0.951,19 µM,0.91,3.16 µM,1.03,> 33.3 µM
